In patent US5268374A, “Non-peptide renin inhibitors” (Abbott Laboratories, priority 1991, dated 1993) one finds IC50 data, which are given here for 23 compounds.

For one test, the target named is T1, human renal renin (Homo sapiens, UniProt P00797).
T1 construct: from tissue; host or cells: human kidney (read from the word 'renal'; no preparation is printed)
T1 sequence (P00797 67-406): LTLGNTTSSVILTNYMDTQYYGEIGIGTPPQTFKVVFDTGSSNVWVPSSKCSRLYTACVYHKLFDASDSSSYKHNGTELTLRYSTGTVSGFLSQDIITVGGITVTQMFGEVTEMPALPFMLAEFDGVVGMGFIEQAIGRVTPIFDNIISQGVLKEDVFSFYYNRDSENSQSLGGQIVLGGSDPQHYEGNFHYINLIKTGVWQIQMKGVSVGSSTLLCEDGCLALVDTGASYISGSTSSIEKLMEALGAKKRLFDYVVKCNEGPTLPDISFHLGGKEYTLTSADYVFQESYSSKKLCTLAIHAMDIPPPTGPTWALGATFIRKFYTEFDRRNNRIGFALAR
The experiment in a line: Inhibition of human renal renin in vitro (angiotensin I formation by radioimmunoassay). Type of test: biochemical.
Conditions: not given
As for `CCCC[C@H](N[C@@H](Cc1ccccc1)C(=O)N1CCC(OCOC)CC1)C(=O)N[C@@H](CC1CCCCC1)[C@@H](O)C[C@H](C(=O)NCCCn1ccnc1)C(C)C` [Example 119], the IC50 (usually the concentration at which inhibition is half-maximal) came out at 3 nM.

Still in this test, the particulars now being: human renal renin, 37 degrees C, pH 6.0; read-out: IC50.
Regarding `CCCC[C@H](O[C@@H](Cc1ccccc1)C(=O)N1CCC(OCOC)CC1)C(=O)N[C@@H](CC1CCCCC1)[C@@H](O)C[C@H](NC(=O)OCCN1CCOCC1)C(C)C` [Example 130], the concentration for half-maximal inhibition (IC50) is 1.4 nM. In the case of `CCCC[C@H](O[C@@H](Cc1ccccc1)C(=O)N1CCC(OCOC)CC1)C(=O)N[C@@H](CC1CCCCC1)[C@@H](O)C[C@H](C(=O)NCCC[N+](C)(C)[O-])C(C)C` [Example 136], the 50% inhibitory concentration (IC50) amounted to 1.4 nM. The same measure, in the same setting: the result for `CC(C)C[C@H](O)[C@H](O)[C@H](CC1CCCCC1)NC(=O)[C@H](C)O[C@@H](Cc1ccccc1)C(=O)N1CCCCC1` [Example 89, 2(S)-(1(S)-(N-Piperidinylcarbonyl)-2-phenylethoxy)propionic acid Amide of 2(S)-Amino-1-cyclohexyl-3(R),4(S)-dihydroxy-6-methylheptane] reads 15 nM; that for `CCCC[C@H](O[C@@H](Cc1ccccc1)C(=O)N1CCC(OCOC)CC1)C(=O)N[C@@H](CC1CCCCC1)[C@@H](O)C(F)(F)[C@H](O)C(C)C` [Example 179], 4.6 nM; that for `CCCC[C@H](O[C@@H](Cc1ccccc1)C(=O)N1CCC(OCOC)CC1)C(=O)N[C@@H](CC1CCCCC1)[C@@H](O)C[C@H](NC(=O)OCCc1ccccn1)C(C)C` [Example 131], 0.88 nM. On to `COCOC1CCN(C(=O)[C@H](Cc2ccccc2)O[C@@H](C)C(=O)N[C@@H](CC2CCCCC2)[C@@H](O)[C@@H](O)CC(C)C)CC1` [Example 94, 2(S)-(1(S)-(4-(Methoxymethoxy)piperidinyl-1-yl-carbonyl)-2-phenylethoxy)propionic acid Amide of 2(S)-Amino-1-cyclohexyl-3(R),4(S)-dihydroxy-6-methylheptane], for which the IC50 was 1.3 nM. Still for that read-out and setting: the result for `CCCC[C@H](O[C@@H](Cc1ccccc1)C(=O)N1CCC(OCOC)CC1)C(=O)N[C@@H](CC1CCCCC1)[C@@H](O)C[C@H](C(=O)NCCCn1ccnc1)C(C)C` [Example 116, 2(S)-(1(S)-(4-(Methoxymethoxy)piperidin-1-yl)carbonyl-2-phenyl)ethoxyhexanoic acid amide of 3-(1-imidazolyl)propyl 5(S)-amino-6-cyclohexyl-4(S)-hydroxy-2(S)-isopropylhexanamide] reads 1.3 nM.

On to `CCCC[C@H](O[C@@H](Cc1ccccc1)C(=O)N1CCC(OCOC)CC1)C(=O)N[C@@H](CC1CCCCC1)[C@@H](O)C[C@H](C(=O)NCCCN(C)C)C(C)C` [Example 117, 2(S)-(1(S)-(4-(Methoxymethoxy)piperidin-1-yl)carbonyl-2-phenyl)ethoxyhexanoic acid amide of 3-(dimethylamino)propyl 5(S)-amino-6-cyclohexyl-4(S)-hydroxy-2(S)-isopropylhexanamide], for which the IC50 was found to be 2.5 nM. Take `CC(C)C[C@H](O)[C@H](O)[C@H](CC1CCCCC1)NC(=O)[C@H](C)O[C@@H](Cc1ccccc1)C(=O)N1CCCC1` [Example 88, 2(S)-(1(S)-(N-Pyrolidinylcarbonyl)-2-phenylethoxy)propionic acid Amide of 2(S)-Amino-1-cyclohexyl-3(R),4(S)-dihydroxy-6-methylheptane]: the half-maximal inhibitory concentration (IC50) was 12 nM. Same read-out and setting: the result for `CCCC[C@H](N[C@@H](Cc1ccccc1)C(=O)N1CCOCC1)C(=O)N[C@@H](CC1CCCCC1)[C@@H](O)[C@@H](O)CC(C)C` [Example 69, N-(1(S)-(4-Morpholinylcarbonyl)-2-phenylethyl)-L-norleucyl Amide of 2(S)-Amino-1-cyclohexyl-3(R),4(S)-dihydroxy-6-methylheptane] reads 9 nM; that for `CCCC[C@H](O[C@@H](Cc1ccccc1)C(=O)N1CCC(OCOC)CC1)C(=O)N[C@@H](CC(C)C)[C@@H](O)CC(=O)NCC(C)CC` (some centres unmarked) [Example 180], 3.8 nM. With `CCCC[C@H](O[C@@H](Cc1ccccc1)C(=O)N1CCC(OCOC)CC1)C(=O)N[C@@H](CC1CCCCC1)[C@@H](O)CN(C(C)C)S(=O)(=O)NC` [Example 142, 2(S)-(1(S)-(4-(Methoxymethoxy)piperidin-1-yl)carbonyl-2-phenyl)ethoxyhexanoic acid amide of (2S,3S)-3-amino-4-cyclohexyl-2-hydroxy-1-(isopropyl(methylsulfamoyl)amino)butane], the IC50 turned out to be 1.3 nM. Consider `CCCC[C@H](O[C@@H](Cc1ccccc1)C(=O)N1CCC(OCOC)CC1)C(=O)N[C@@H](CC1CCCCC1)[C@@H](O)[C@@H](O)CC(C)C` [Example 93, 2(S)-(1(S)-(4-(Methoxymethoxy)piperidin-1-yl-carbonyl)-2-phenylethoxy)hexanoic acid Amide of 2(S)-Amino-1-cyclohexyl-3(R),4(S)-dihydroxy-6-methylheptane], for which the half-maximal inhibitory concentration (IC50) was 1.1 nM. For the compound `CCCC[C@H](O[C@@H](Cc1ccccc1)C(=O)N1CCC(OCOC)CC1)C(=O)N[C@@H](CC1CCCCC1)[C@@H](O)[C@@H]1CN(CC)C(=O)O1` [Example 108, 2(S)-(1(S)-(4-(Methoxymethoxy)piperidin-1-yl-carbonyl)-2-phenylethoxy)hexanoic acid Amide of (2's,1'R,5S)-3-Ethyl-5-(1'-hydroxy-2'-amino-3'-cyclohexylpropyl)oxazolidin-2-one], the IC50 worked out at 0.87 nM.

As for `CCCC[C@H](O[C@@H](Cc1ccccc1)C(=O)N1CCC(OCOC)CC1)C(=O)N[C@@H](CC1CCCCC1)[C@@H](O)CN(C)S(=O)(=O)NC` [Example 122, 2(S)-(1(S)-(4-(Methoxymethoxy)piperidin-1-yl)carbonyl-2-phenyl)ethoxyhexanoic acid amide of (2S,3S)-3-amino-4-cyclohexyl-2-hydroxy-1-(methyl(methylsulfamoyl)amino)butane], the IC50 came to 2.5 nM. `CCCC[C@H](O[C@@H](Cc1ccccc1)C(=O)N1CCC(OCOC)CC1)C(=O)N[C@@H](CC1CCCCC1)[C@@H](O)C[C@H](NC(=O)OCCN(C)C)C(C)C` [Example 129]: the IC50 was found to be 2.7 nM. Regarding `CCCCNC(=O)[C@@H](C[C@H](O)[C@H](CC1CCCCC1)NC(=O)[C@H](C)O[C@@H](Cc1ccccc1)C(=O)N1CCOCC1)C(C)C` [Example 91, 2(S)-(1(S)-(4-Morpholinylcarbonyl)-2-phenylethoxy)propionic acid Amide of 2(S)-Amino-1-cyclohexyl-3(S)-hydroxy-5(S)-n-butylcarbamoyl-6-methylheptane], the IC50 was determined as 3.9 nM.

In the case of `CC(C)C[C@H](O)[C@H](O)[C@H](CC1CCCCC1)NC(=O)[C@H](C)O[C@@H](Cc1ccccc1)C(=O)N1CCC1` [Example 87, 2(S)-(1(S)-(N-Azetidinylcarbonyl)-2-phenylethoxy)propionic acid Amide of 2(S)-Amino-1-cyclohexyl-3(R),4(S)-dihydroxy-6-methylheptane], the IC50 came out at 5.5 nM. As to `CCCCNC(=O)[C@@H](C[C@H](O)[C@H](CC1CCCCC1)NC(=O)[C@H](CCCC)O[C@@H](Cc1ccccc1)C(=O)N1CCC(OCOC)CC1)C(C)C` [Example 96, 2(S)-(1(S)-(4-(Methoxymethoxy)piperidin-1-yl-carbonyl)-2-phenylethoxy)hexanoic acid Amide of 2(S)-Amino-1-cyclohexyl-3(S)-hydroxy-5(S)-n-butylcarbamoyl-6-methylheptane], the half-maximal inhibitory concentration (IC50) was 1.5 nM. Same read-out and setting: the result for `CCCCC(=O)N[C@@H](C[C@H](O)[C@H](CC1CCCCC1)NC(=O)[C@H](CCCC)O[C@@H](Cc1ccccc1)C(=O)N1CCC(OCOC)CC1)C(C)C` [Example 132, 2(S)-1(S)-4-(Methoxymethoxy)piperidin-1-yl)carbonyl-2-phenyl)ethoxyhexanoicacid amide of 2(S)-amino-1-cyclohexyl-5(S)-((2-(pentanoyl)amino-3(S)-hydroxy-6-methylheptane] reads 3.2 nM; that for `CCCC[C@H](O[C@@H](Cc1ccccc1)C(=O)N1CCC(OCOC)CC1)C(=O)N[C@@H](CC1CCCCC1)[C@@H](O)[C@@H](O)CN(C)OC` [Example 139], 2.7 nM; that for `CCCC[C@H](N[C@@H](Cc1ccccc1)C(=O)N1CCC(OCOC)CC1)C(=O)N[C@@H](CC1CCCCC1)[C@H](O)CC(C(=O)N[C@H](C(=O)NCc1ccccn1)[C@@H](C)CC)C(C)C` (some centres unmarked) [Example 181], 1.8 nM.
